From US5770563A, “Heparin- and sulfatide binding peptides from the type I repeats of human thrombospondin and conjugates thereof” (The United States of America as represented by the …, priority 1995, dated 1998)
Read-outs that look alike come from different tables or passages of the source. Square brackets hold non-standard residues; d marks the D form. Peptide text beside a SMILES is read from it. Mpa = O=C(O)CCS

How the values were obtained:
[1] = molecular target: thrombospondin binding to heparin; assay: Inhibition of 125I-thrombospondin binding to immobilized heparin-BSA; parameters: species or system human; conditions: for inhibition of thrombospondin binding to heparin, in words: free peptide
Experimental: (§1) The peptides were tested as inhibitors of laminin, thrombospondin or apolipoprotein E binding to a heparin-bovine serum albumen conjugate or to a sulfatide in a solid phase assay essentially following the procedure described in Zabrenetzky et al., Cancer Res., Vol. 50, pages 5937-5942 (1990). Sulfatide (0.2 μg/well for thrombospondin binding, 0.6 μg/well for laminin binding) was immobilized in a mixture of 50 ng of phosphatidyl choline, and 30 ng of cholesterol on polyvinyl chloride microtiter plates. Heparin-BSA (0.2 μg/well) was absorbed onto polyvinyl chloride microtiter plate wells by incubation of 50 μl of Dulbecco's PBS for 2 h at 37°. The wells were emptied and filled with 50 mM tris, pH 7.8 containing 150 mM NaCl, 1 mM CaCl2, 0.025% NaN3, and 1% BSA. After 30 minutes, the wells were emptied and 30 μl of various concentrations of potential inhibitory peptides diluted in the same buffer or buffer alone and 30 μl of ^125 I-labeled laminin, thrombospondin or apolipoprotein E (0.2 μg/ml) were added to each well. After 3 hours at 4°, the wells were washed 6 times with 0.15M NaCl, cut from the plate and the bound radioactivity counted. FIGS. 1A-B and 2A-B show the level of thrombospondin binding to sulfatide and heparin-BSA, respectively, in the presence of increasing concetrations of the peptides listed. FIGS. 3 and 4A-B show the level of laminin binding to sulfatide and heparin-BSA, respectively, in the presence of increasing concentrations of the listed peptides.
Microtiter plate wells were coated with heparin-BSA. Heparin-BSA (0.2 μg/well) was adsorbed by incubation in 50 μl of Dulbecco's PBS for 2 h at 370. The wells were emptied, filled with tris-BSA, and incubated for 30 to 60 minutes. The buffer was removed, and labelled thrombospondin was added and incubated in the wells for 3 h at 40. The wells were emptied and washed 4 times with saline. The bottoms of the wells were cut from the plate and counted to quantify thrombospondin binding. Inhibition of thrombospondin binding was determined using peptides diluted in 30 μl of 50 mM tris buffer, pH 7.8, containing 110 mM NaCl, 1 mM CaCl2, 0.025% NaN3, and 1% BSA or buffer alone and 30 μl of ^125 I-labeled TSP (0.2 μg/ml).

[2] = molecular target: basic fibroblast growth factor (FGF-2) binding to heparin; assay: Inhibition of 125I-bFGF binding to heparin-BSA conjugate
Experimental: Binding of ^125 I-bFGF to heparin was determined using an immobilized heparin-BSA conjugate as previously described (Guo, et al. (1992) Proc. Nat'l Acad. Sci. 89:3040-3044). ^125 I-bFGF, prepared as described by Neufeld, et al, (1985), J. Biol. Chem. 260:13860-13868, was added described above, and incubated for 2 hours at 25° C. Bound radioactivity was determined after washing and cutting the wells from the plate. FIGS. 40A, B and C show the inhibition of ^125 I-bFGF binding to heparin by a number of TSP peptide analogs.

[3] = molecular target: laminin binding to heparin; assay: Inhibition of 125I-laminin binding to heparin-BSA; parameters: species or system mouse; conditions: for IC50: Table 2, free peptide
Experimental: as §1

[4] = molecular target: apolipoprotein E binding to heparin; assay: Inhibition of 125I-apolipoprotein E binding to heparin-BSA; conditions: Table 2, free peptide; read-out: IC50 Apo E Binding to Heparin
Experimental: as §1

[5] = molecular target: laminin binding to sulfatide; assay: Inhibition of 125I-laminin binding to sulfatide; parameters: species or system mouse; conditions: Table 2, free peptide
Experimental: as §1

[6] = molecular target: thrombospondin binding to sulfatide; assay: Inhibition of 125I-thrombospondin binding to sulfatide; parameters: species or system human; conditions: Table 1, free peptide
Experimental: as §1

[7] = system: MDA MB435 breast carcinoma cells; assay: MDA MB435 human breast carcinoma cell proliferation; type: cell-based
Experimental: Human breast carcinoma cells MDA MB435 (American Type Culture Collection) were grown in RPMI 1640 medium containing 10% fetal calf serum. Proliferation was determined as described in FIG. 18 and 44A, B and C.
Human breast carcinoma cells MDA MB435 (American Type Culture Collection) were grown in RPMI 1640 medium containing 10% fetal calf serum. Proliferation was determined in the presence of 0.5% fetal calf serum and bFGF as described in FIG. 19.

[8] = retro-inverso peptides, free, read-out: IC50 Inhibitory Activity, Free Peptide
[9] = retro-inverso peptides, read-out: IC50 for Inhibition of Binding
[10] = Table 1, free peptide, read-out: IC50 Heparin Binding, inhibition of 125I-thrombospondin binding
[11] = L-forward peptides, read-out: IC50 Inhibitory Activity

CC(=O)N[C@H](CS)C(=O)N[C@H](CO)C(=O)N[C@H](CO)C(=O)N[C@H](Cc1c[nH]c2ccccc12)C(=O)N1CCC[C@@H]1C(=O)N[C@H](CO)C(=O)N[C@H](Cc1c[nH]c2ccccc12)C(=O)N[C@H](Cc1c[nH]cn1)C(=O)N[C@H](CO)C(=O)N[C@H](Cc1c[nH]c2ccccc12)C(=O)NCC(=O)NCC(=O)N[C@H](C)C(=O)N[C@H](C)C(=O)N[C@H](CCCCN)C(=O)N[C@H](C)C(=O)N[C@H](CCCNC(=N)N)C(=O)N[C@H](CCCCN)C(N)=O [Peptide 473, ri-amKRAKAAGGWSHWSPWSSCac] (Ac-[dC][dS][dS][dW][dP][dS][dW][dH][dS][dW]GG[dA][dA][dK][dA][dR][dK]-NH2)
IC50 [1, 8]: 0.15 µM | IC50 [2, 9]: 1.9 µM

N[C@@H](CO)C(=O)N[C@@H](Cc1c[nH]cn1)C(=O)N[C@@H](Cc1c[nH]c2ccccc12)C(=O)N[C@@H](CO)C(=O)N1CCC[C@H]1C(=O)N[C@@H](Cc1c[nH]c2ccccc12)C(=O)N[C@@H](CO)C(=O)N[C@@H](CO)C(=O)O [Peptide 239, SHWSPWSS] (H-SHWSPWSS-OH)
IC50 [3]: 11 µM | IC50 [4]: 250 µM | IC50 [1, 10]: 5.2 µM | inhibition of thrombospondin binding to heparin, in words [1]: more active than the intact dodecapeptide | IC50 [5]: 12 µM | IC50 [6]: 10 µM

N[C@@H](Cc1c[nH]c2ccccc12)C(=O)N[C@@H](CO)C(=O)N1CCC[C@H]1C(=O)N[C@@H](Cc1c[nH]c2ccccc12)C(=O)N[C@@H](CO)C(=O)N[C@@H](CO)C(=O)N[C@@H](CS)C(=O)N[C@@H](CO)C(=O)O [Peptide 240, WSPWSSCS] (H-WSPWSSCS-OH)
IC50 [3]: 100 µM | IC50 [4]: 150 µM | IC50 [1, 10]: 66 µM | IC50 [5]: 100 µM | IC50 [6]: 100 µM

KRFKQDGGWSHWSPWSSC [Peptide 364]
inhibition of MDA435 proliferation, in words ([7]; FICOLL conjugate): strongly inhibited proliferation | fold less active than native thrombospondin ([7]; from dose response curves, 0.5% fetal calf serum and bFGF): approximately 10 fold | activity relative to native thrombospondin on a subunit molar basis ([7]; subunit molar basis): about three-fold less active

C[C@H](NC(=O)[C@H](Cc1c[nH]cn1)NC(=O)[C@@H](N)CO)C(=O)N[C@@H](CO)C(=O)N1CCC[C@H]1C(=O)N[C@@H](C)C(=O)N[C@@H](CO)C(=O)N[C@@H](CO)C(=O)O [Peptide 244, SHASPASS] (H-SHASPASS-OH)
IC50 [3]: > 200 µM | IC50 [4]: > 200 µM | IC50 [1, 10]: > 200 µM | fold less active than the natural sequence SHWSPWSS ([1]; Trp replaced by Ala): more than 100 fold | IC50 [6]: > 200 µM

CC(C)[C@H](NC(=O)[C@H](CO)NC(=O)[C@H](CS)NC(=O)[C@H](CO)NC(=O)[C@H](CO)NC(=O)[C@H](Cc1c[nH]c2ccccc12)NC(=O)[C@@H]1CCCN1C(=O)[C@H](CO)NC(=O)[C@@H](N)Cc1c[nH]c2ccccc12)C(=O)N[C@H](C(=O)O)[C@@H](C)O [Peptide 241, WSPWSSCSVT] (H-WSPWSSCSVT-OH)
IC50 [3]: 34 µM | IC50 [4]: 180 µM | IC50 [1, 10]: 35 µM | IC50 [5]: 50 µM | IC50 [6]: 34 µM

CC(=O)N[C@H](CS)C(=O)N[C@H](CO)C(=O)N[C@H](CO)C(=O)N[C@H](Cc1c[nH]c2ccccc12)C(=O)N1CCC[C@@H]1C(=O)N[C@H](CO)C(=O)N[C@H](Cc1c[nH]c2ccccc12)C(=O)N[C@H](Cc1c[nH]cn1)C(=O)N[C@H](CO)C(=O)N[C@H](Cc1c[nH]c2ccccc12)C(=O)NCC(=O)NCC(=O)N[C@H](C)C(=O)N[C@H](CCC(N)=O)C(=O)N[C@H](CCCCN)C(=O)N[C@H](C)C(=O)N[C@H](CCCNC(=N)N)C(=O)N[C@H](CCCCN)C(N)=O [Peptide 476, ri-amKRAKQAGGWSHWSPWSSCac] (Ac-[dC][dS][dS][dW][dP][dS][dW][dH][dS][dW]GG[dA][dQ][dK][dA][dR][dK]-NH2)
IC50 [1, 8]: 0.03 µM | IC50 [2, 9]: 0.22 µM

NCC(=O)NCC(=O)N[C@@H](Cc1c[nH]c2ccccc12)C(=O)N[C@@H](CO)C(=O)N[C@@H](Cc1c[nH]cn1)C(=O)N[C@@H](Cc1c[nH]c2ccccc12)C(=O)N[C@@H](CO)C(=O)N1CCC[C@H]1C(=O)N[C@@H](Cc1c[nH]c2ccccc12)C(=O)N[C@@H](CO)C(=O)N[C@@H](CO)C(=O)O [Peptide 256, GGWSHWSPWSS] (H-GGWSHWSPWSS-OH)
inhibition of laminin binding, in words ([3]; free peptide): increased activity | inhibition of thrombospondin binding to heparin, in words [1]: decreased activity | IC50 [2, 11]: > 40 µM

CC(=O)N[C@H](CS)C(=O)N[C@H](CO)C(=O)N[C@H](CO)C(=O)N[C@H](C)C(=O)N1CCC[C@@H]1C(=O)N[C@H](CO)C(=O)N[C@H](C)C(=O)N[C@H](Cc1c[nH]cn1)C(=O)N[C@H](CO)C(=O)N[C@H](C)C(=O)NCC(=O)NCC(=O)N[C@H](CC(=O)O)C(=O)N[C@H](CCC(N)=O)C(=O)N[C@H](CCCCN)C(=O)N[C@H](Cc1ccccc1)C(=O)N[C@H](CCCNC(=N)N)C(=O)N[C@H](CCCCN)C(N)=O [Peptide 475, ri-amKRFKQDGGASHASPASSCac] (Ac-[dC][dS][dS][dA][dP][dS][dA][dH][dS][dA]GG[dD][dQ][dK][dF][dR][dK]-NH2)
IC50 [1, 8]: 10 µM | IC50 [2, 9]: > 20 µM

CC[C@H](C)[C@H](NC(=O)[C@H](CC(=O)O)NC(=O)[C@H](Cc1c[nH]c2ccccc12)NC(=O)[C@@H]1CCCN1C(=O)[C@H](CO)NC(=O)[C@H](Cc1c[nH]c2ccccc12)NC(=O)[C@@H]1CCCN1C(=O)CN)C(=O)N[C@@H](CS)C(=O)N[C@@H](CO)C(=O)N[C@H](C(=O)N[C@H](C(=O)O)[C@@H](C)O)C(C)C [Peptide 186, GPWSPWDICSVT] (H-GPWSPWDICSVT-OH)
IC50 [3]: 15 µM | IC50 [4]: 52 µM | IC50 [1, 10]: 8.5 µM | IC50 [5]: 35 µM | IC50 [6]: 27 µM

C[C@@H](NC(=O)CCS)C(=O)N[C@H](C)C(=O)N[C@H](CO)C(=O)N[C@H](Cc1c[nH]c2ccccc12)C(=O)N[C@H](Cc1c[nH]cn1)C(=O)N[C@H](CO)C(=O)N[C@H](Cc1c[nH]c2ccccc12)C(=O)NCC(=O)N[C@H](C)C(=O)N[C@H](CCC(N)=O)C(=O)N[C@H](CCCCN)C(=O)N[C@H](C)C(=O)N[C@H](CCCNC(=N)N)C(=O)N[C@H](CCCCN)C(N)=O [Peptide 525, ri-amKRAKQAGWSHWSAAtc] ([Mpa][dA][dA][dS][dW][dH][dS][dW]G[dA][dQ][dK][dA][dR][dK]-NH2)
IC50 [1, 8]: 0.035 µM | IC50 [2, 9]: 0.28 µM

CC(=O)N[C@@H](CCCCN)C(=O)N[C@@H](CCCNC(=N)N)C(=O)N[C@@H](C)C(=O)N[C@@H](CCCCN)C(=O)N[C@@H](CCC(N)=O)C(=O)N[C@@H](C)C(=O)NCC(=O)NCC(=O)N[C@@H](Cc1c[nH]c2ccccc12)C(=O)N[C@@H](CO)C(=O)N[C@@H](Cc1c[nH]cn1)C(=O)N[C@@H](Cc1c[nH]c2ccccc12)C(=O)N[C@@H](C)C(=O)N[C@@H](C)C(=O)N[C@@H](CS)C(N)=O [acKRAKQAGGWSHWAACam] (Ac-KRAKQAGGWSHWAAC-NH2)
IC50 ([1]; L-forward peptides, free, read-out: IC50 Inhibitory Activity, Free Peptide): 0.045 µM | IC50 [2, 11]: 0.41 µM
